This passage reports IC50 results from paper PMC5577655 (mSphere, 2017).

For orientation: pIC50 means −log10 of the IC50, conventionally taken in molar units.

Test [1] deals with T1, lysyl-tRNA synthetase 1 (LdLysRS-1) (Leishmania donovani, UniProt A0A3Q8IA00).
T1 construct: gene LdCL_150007600; full-length LdLysRS-1 (586 aa), N-terminal His6 tag
The test can be described thus: malachite green aminoacylation assay with recombinant enzyme; thermal shift of ~[…]°C. The format is biochemical.

For test [2], the target named is T1, lysyl-tRNA synthetase 1 (LdLysRS-1). The description is as above. The format is biochemical. The source holds these as a separate data set.

pIC50: −log10 of the molar value. Like-named read-outs stand apart in the source and are kept apart here.

T1 sequence (A0A3Q8IA00 entry or part of it): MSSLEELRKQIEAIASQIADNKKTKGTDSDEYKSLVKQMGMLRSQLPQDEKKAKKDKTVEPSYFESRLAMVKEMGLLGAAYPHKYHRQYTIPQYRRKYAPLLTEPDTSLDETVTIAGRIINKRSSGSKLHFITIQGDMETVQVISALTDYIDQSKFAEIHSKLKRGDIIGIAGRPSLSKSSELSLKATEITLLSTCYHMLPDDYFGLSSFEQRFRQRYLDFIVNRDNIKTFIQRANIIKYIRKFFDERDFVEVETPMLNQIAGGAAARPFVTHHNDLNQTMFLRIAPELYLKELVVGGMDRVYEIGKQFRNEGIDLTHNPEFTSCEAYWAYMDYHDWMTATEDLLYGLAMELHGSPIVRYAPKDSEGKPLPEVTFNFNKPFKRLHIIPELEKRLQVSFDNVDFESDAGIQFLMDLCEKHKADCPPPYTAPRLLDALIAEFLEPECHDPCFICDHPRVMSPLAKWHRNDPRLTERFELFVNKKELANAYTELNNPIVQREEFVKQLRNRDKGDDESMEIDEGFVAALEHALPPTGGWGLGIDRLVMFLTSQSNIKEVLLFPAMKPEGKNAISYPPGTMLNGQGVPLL

Turning to `C[C@@H]1CCC[C@H](C[C@@H]2Cc3cc(O)cc(O)c3C(=O)O2)O1` [3-epi-isocladosporin], the negative logarithm of the IC50 (pIC50) in test [1] is about 4.59.

Regarding `C[C@H]1CCC[C@H](C[C@H]2Cc3cc(O)cc(O)c3C(=O)O2)O1` [cladosporin], the negative logarithm of the IC50 (pIC50) in test [2] is about 5.39.
